# Experimental data published in patent publication US4073913A, “N^2 -arylsulfonyl-L-argininamides and the pharmaceutically acceptable salts thereof” (Mitsubishi Chemical Industries Limited, priority 1974, dated 1978).
# Read-outs that look alike come from different tables or passages of the source. Non-standard residues stand in square brackets, D forms with d. Residues, ends and D or L forms follow the SMILES beside them. ξ: configuration not given here. *: point of attachment. Dansyl = CN(C)c1cccc2c(S(=O)(=O)*)cccc12; ξPip = O=C(O)C1CCCCN1
# Tests used:
# [1] = acute toxicity (LD50), intraperitoneal administration in mice; assay type: in vivo, mice (male, 20 g); conditions: for LD50: intraperitoneal, mice (male, 20 g); for LD50 values (comparison dansyl compounds): comparison with N^2 -dansyl-L-argininamides, route and species not restated
# thrombin = biological target: T1, thrombin (Bos taurus, UniProt P00735); assay: fibrinogen coagulation time (concentration required to prolong the coagulation time by a factor of two); assay type: biochemical; conditions: bovine fibrinogen, thrombin 5 units/ml, borate saline buffer pH 7.4, 25° C; control 50-55 seconds prolonged to 100-110 seconds
# T1 construct: clotting of bovine fibrinogen
# Experimental: The measurement of the fibrinogen coagulation time was conducted as follows:
# Immediately after mixing, the reaction mixture was transferred from the ice bath to a bath maintained at 25° C. Coagulation times were taken as the period between the time of transference to the 25° C bath and the time of the first appearance of fibrin threads. […] The term "concentration required to prolong the coagulation time by a factor of two" is the concentration of an active ingredient required to prolong the normal coagulation time 50-55 seconds to 100-110 seconds.
# [2] = mouse, in vivo, ip, read-out: LD50
Compound,"LD50 [1, 2]",other results
CC1CCN(C(=O)[C@H](CCCNC(=N)N)NS(=O)(=O)c2cccc3ccccc23)C(C(=O)O)C1 (stereo partly drawn) [1-N^2-(1-naphthylsulfonyl)-L-arginyl!-4-methyl-2-piperidinecarboxylic acid],700 to 1000 mg/kg,–
CN(C)c1cccc2c(S(=O)(=O)N[C@@H](CCCNC(=N)N)C(=O)N3CCCCC3C(=O)O)cccc12 (stereo partly drawn) [1-N^2-(5-dimethylamino-1-naphthylsulfonyl)-L-arginyl!-2-piperidinecarboxylic acid] (Dansyl-Arg-[ξPip]-OH),700 to 1000 mg/kg,–
"COc1cc2ccc(S(=O)(=O)N[C@@H](CCCNC(=N)N)C(=O)N3Cc4ccccc4CC3C(=O)O)cc2cc1OC (stereo partly drawn) [2-N^2-(6,7-dimethoxy-2-naphthylsulfonyl)-L-arginyl!-1,2,3,4-tetrahydroisoquinoline-3-carboxylic acid]",> 1000 mg/kg,–
"COc1cc2ccc(S(=O)(=O)N[C@@H](CCCNC(=N)N)C(=O)N3Cc4ccccc4C3C(=O)O)cc2cc1OC (stereo partly drawn) [2-N^2-(6,7-dimethoxy-2-naphthylsulfonyl)-L-arginyl!-1-isoindolinecarboxylic acid]",> 1000 mg/kg,–
COc1ccc2ccc(S(=O)(=O)N[C@@H](CCCNC(=N)N)C(=O)N3CCOCC3C(=O)O)cc2c1 (stereo partly drawn) [4-N^2-(7-methoxy-2-naphthylsulfonyl)-L-arginyl!-3-morpholinecarboxylic acid],> 1000 mg/kg,–
"CCCCNC(=O)[C@H](CCCNC(=N)N)NS(=O)(=O)c1cccc2c(N(C)C)cccc12 [N^2 -dansyl-N-butyl-L-argininamide, reference compound]",–,LD50 values (comparison dansyl compounds) [1]: 75 milligrams per kilogram
"CCCCN(C)C(=O)[C@H](CCCNC(=N)N)NS(=O)(=O)c1cccc2c(N(C)C)cccc12 [N^2 -dansyl-N-methyl-N-butyl-L-argininamide, reference compound]",–,LD50 values (comparison dansyl compounds) [1]: 70 milligrams per kilogram
"COCCN(CC(=O)O)C(=O)[C@H](CCCNC(=N)N)NS(=O)(=O)c1cc(OC)c2cc(OC)ccc2c1 [N^2-(4,6-dimethoxy-2-naphthylsulfonyl)-L-arginyl-N-(2-methoxyethyl)glycine]",660 to 1000 mg/kg,–
"COc1ccc2cc(S(=O)(=O)N[C@@H](CCCNC(=N)N)C(=O)N(CC3CCCCC3)[C@@H](C)C(=O)O)cc(OC)c2c1 [N^2-(4,6-dimethoxy-2-naphthylsulfonyl)-L-arginyl-N-cyclohexylmethylalanine]",> 1500 mg/kg,–
"CCOCCN(CCC(=O)O)C(=O)[C@H](CCCNC(=N)N)NS(=O)(=O)c1ccc2cc(OC)c(OC)cc2c1 [N^2-(6,7-dimethoxy-2-naphthylsulfonyl)-L-arginyl-N-(2-ethoxyethyl)-β-alanine]",660 to 1000 mg/kg,–
"CCSCCN(CC(=O)O)C(=O)[C@H](CCCNC(=N)N)NS(=O)(=O)c1ccc2cc(OC)c(OC)cc2c1 [N^2-(6,7-dimethoxy-2-naphthylsulfonyl)-L-arginyl-N-(2-ethylthioethyl)glycine]",> 1000 mg/kg,–
"COCCN(CC(=O)O)C(=O)[C@H](CCCNC(=N)N)NS(=O)(=O)c1ccc2cc(OC)c(OC)cc2c1 [N^2-(6,7-dimethoxy-2-naphthylsulfonyl)-L-arginyl-N-(2-methoxyethyl)glycine]",1900 to 2400 mg/kg,–
"CCCCN(C(=O)[C@H](CCCNC(=N)N)NS(=O)(=O)c1ccc2cc(OC)c(OC)cc2c1)[C@@H](C)C(=O)O [N^2-(6,7-dimethoxy-2-naphthylsulfonyl)-L-arginyl-N-butylalanine]",> 1500 mg/kg,–
"COc1cc2ccc(S(=O)(=O)N[C@@H](CCCNC(=N)N)C(=O)N(CC(=O)O)C3CCCCC3)cc2cc1OC [N^2-(6,7-dimethoxy-2-naphthylsulfonyl)-L-arginyl-N-cyclohexylglycine]",1500 mg/kg,"LD50 [1]: > 1,500 mg/kg"
"COc1cc2ccc(S(=O)(=O)N[C@@H](CCCNC(=N)N)C(=O)N(CC(=O)O)CC3CCCCC3)cc2cc1OC [N^2-(6,7-dimethoxy-2-naphthylsulfonyl)-L-arginyl-N-cyclohexylmethylglycine]",> 1500 mg/kg,–
"COc1cc2ccc(S(=O)(=O)N[C@@H](CCCNC(=N)N)C(=O)N(CC(=O)O)CC3CCCO3)cc2cc1OC (stereo partly drawn) [N^2-(6,7-dimethoxy-2-naphthylsulfonyl)-L-arginyl-N-tetrahydrofurfurylglycine]",620 mg/kg,–
COCCN(CC(=O)O)C(=O)[C@H](CCCNC(=N)N)NS(=O)(=O)c1ccc2ccc(OC)cc2c1 [N^2-(7-methoxy-2-naphthylsulfonyl)-L-arginyl-N-(2-methoxyethyl)glycine],2000 mg/kg,–
Cc1ccc2ccc(S(=O)(=O)N[C@@H](CCCNC(=N)N)C(=O)N(CC(=O)O)CC3CCCO3)cc2c1 (stereo partly drawn) [N^2-(7-methyl-2-naphthylsulfonyl)-L-arginyl-N-tetrahydrofurfurylglycine],600 mg/kg,–
COc1ccc2ccc(S(=O)(=O)N[C@@H](CCCNC(=N)N)C(=O)N(C)C(Cc3ccccc3)C(=O)O)cc2c1 (stereo partly shown) [compound 211],–,IC (2-fold clotting time) (thrombin): 2.5 µM
COc1cc2ccc(S(=O)(=O)N[C@@H](CCCNC(=N)N)C(=O)N(CC(=O)O)CC(C)OC)cc2cc1OC (stereo partly shown) [compound 212],–,IC (2-fold clotting time) (thrombin): 6.5 µM
CCCC(NC(=O)[C@H](CCCNC(=N)N)NS(=O)(=O)c1ccc2cc(OC)c(OC)cc2c1)C(=O)O (stereo partly shown) [compound 214],–,IC (2-fold clotting time) (thrombin): 15 µM
COc1cc2ccc(S(=O)(=O)N[C@@H](CCCNC(=N)N)C(=O)N3CCCC[C@@H]3C(=O)O)cc2cc1OC [compound 220],–,IC (2-fold clotting time) (thrombin): 2 µM
COc1cc2ccc(S(=O)(=O)N[C@@H](CCCNC(=N)N)C(=O)N3CCCC[C@H]3C(=O)O)cc2cc1OC [compound 221],–,IC (2-fold clotting time) (thrombin): 15 µM
COc1ccc2ccc(S(=O)(=O)N[C@@H](CCCNC(=N)N)C(=O)N(CC[S+](C)[O-])CC(=O)O)cc2c1 (stereo partly shown) [compound 222],–,IC (2-fold clotting time) (thrombin): 6.5 µM
